# Measured values: patent publication US20080009540A1, “Amorphous Atorvastatin Calcium” (priority 2004, published 2008)
# Structures can show the parent of a compound that is named as a salt.
# What was measured:
# Format in all cases: physicochemical
# [1] = Storage stability of amorphous atorvastatin calcium, Example 7 packaging (2 percent w/w moisture; nitrogen, silica gel, oxygen absorbent)
# Excerpt: The following packaging procedure was followed: 1) amorphous atorvastatin calcium having a 2 percent w/w moisture content was placed in a white polyethylene bag, the bag was purged with nitrogen, and then the bag was tied; 2) the tied white polyethylene bag was placed into a black polyethylene bag, along with a silica gel pouch and a bag of oxygen absorbent, then the black bag was purged with nitrogen and sealed; 3) the sealed black polyethylene bag was placed into a triple laminated bag along with a silica gel pouch, and then the laminated bag was purged with nitrogen and sealed; and 4) the sealed laminated bag was stored in a HDPE drum.
# [2] = Storage stability of amorphous atorvastatin calcium, Example 6 packaging (6 percent w/w water; nitrogen, silica gel)
# Excerpt: The following packaging procedure was followed: 1) amorphous atorvastatin calcium having a 6 percent w/w water content was initially packed in a polyethylene bag, which was then tied; 2) the tied polyethylene bag was placed in a black polyethylene bag with a silica gel pouch under a nitrogen atmosphere and then sealed; 3) the sealed black polyethylene bag was placed in a triple laminated bag along with a silica gel pouch, was purged with nitrogen, and sealed; and 4) the sealed laminated bag was stored in a HDPE drum.
# table, where water was determined by the Karl Fischer method, and total organic impurities are expressed as area-percent, as determined by high performance liquid chromatography.
# [3] = Storage stability of commercial-sized batch of amorphous atorvastatin calcium, Example 8 packaging
# Excerpt: A commercial-sized batch of amorphous atorvastatin calcium was packaged as follows:
# a) amorphous atorvastatin calcium having a 6 percent w/w water content was initially placed into a clear polyethylene bag, air was removed, and the clear polyethylene bag was tied;
# b) the tied clear polyethylene bag was placed into a black polyethylene bag along with a silica gel pouch and a package of oxygen absorbent, and then the black polyethylene bag was purged with nitrogen and sealed; and
# c) the sealed black polyethylene bag was placed in a triple laminated bag along with a silica gel pouch, then the laminated bag was purged with nitrogen and sealed.
# [4] = 25° C. and 60% relative humidity, 1 Month
# [5] = 25° C. and 60% relative humidity, 2 Months
# [6] = 25° C. and 60% relative humidity, Initial
# [7] = 40° C. and 75% relative humidity, 1 Month
# [8] = 40° C. and 75% relative humidity, 2 Months
# [9] = 40° C. and 75% relative humidity, 15 Days
# [10] = 40° C. and 75% relative humidity, 45 Days
# [11] = 40° C. and 75% relative humidity, Initial
# [12] = all three storage conditions, up to 2 Months
# [13] = 25° C. and 60% relative humidity, 45 Days
# [14] = 25° C. and 60% relative humidity, 2 Month
# [15] = 25° C. and 60% relative humidity, 3 Month
# [16] = 40° C. and 75% relative humidity, 2 Month
# [17] = 40° C. and 75% relative humidity, 3 Month
smiles,measurement,setting,value
"CC(C)c1c(C(=O)Nc2ccccc2)c(-c2ccccc2)c(-c2ccc(F)cc2)n1CC[C@@H](O)C[C@@H](O)CC(=O)O (relative stereo) [amorphous atorvastatin calcium, [R-(R*,R*)]-2-(4-fluorophenyl)-β,δ-dihydroxy-5-(1-methylethyl)-3-phenyl-4-[(phenylamino)carbonyl]-1H-pyrrole-1-heptanoic acid, calcium salt (2:1)]",Total Impurities,"[1]; 2 to 8° C., 1 Month",0.27 area-percent
same,Wt. Percent H2O,"[1]; 2 to 8° C., 1 Month",2.3 Wt. Percent
same,Total Impurities,"[1]; 2 to 8° C., 2 Months",0.30 area-percent
same,Wt. Percent H2O,"[1]; 2 to 8° C., 2 Months",2.6 Wt. Percent
same,Total Impurities,"[1]; 2 to 8° C., Initial",0.29 area-percent
same,Wt. Percent H2O,"[1]; 2 to 8° C., Initial",2.0 Wt. Percent
same,Total Impurities,[1]; [4],0.34 area-percent
same,Wt. Percent H2O,[1]; [4],2.4 Wt. Percent
same,Total Impurities,[1]; [5],0.38 area-percent
same,Wt. Percent H2O,[1]; [5],2.9 Wt. Percent
same,Total Impurities,[1]; [6],0.29 area-percent
same,Wt. Percent H2O,[1]; [6],2.0 Wt. Percent
same,Total Impurities,[1]; [7],0.41 area-percent
same,Wt. Percent H2O,[1]; [7],3.4 Wt. Percent
same,Total Impurities,[1]; [8],0.40 area-percent
same,Wt. Percent H2O,[1]; [8],3.2 Wt. Percent
same,Total Impurities,[1]; [9],0.34 area-percent
same,Wt. Percent H2O,[1]; [9],3.1 Wt. Percent
same,Total Impurities,[1]; [10],0.34 area-percent
same,Wt. Percent H2O,[1]; [10],3.2 Wt. Percent
same,Total Impurities,[1]; [11],0.29 area-percent
same,Wt. Percent H2O,[1]; [11],2.0 Wt. Percent
same,Change during the storage periods,[1]; [12],did not change appreciably
same,Total Impurities,"[2]; 2 to 8° C., 2 Months",0.47 area-percent
same,Wt. Percent H2O,"[2]; 2 to 8° C., 2 Months",4.80 Wt. Percent
same,Total Impurities,"[2]; 2 to 8° C., 45 Days",0.46 area-percent
same,Wt. Percent H2O,"[2]; 2 to 8° C., 45 Days",4.50 Wt. Percent
same,Total Impurities,"[2]; 2 to 8° C., Initial",0.37 area-percent
same,Wt. Percent H2O,"[2]; 2 to 8° C., Initial",6.00 Wt. Percent
same,Total Impurities,[2]; [5],0.49 area-percent
same,Wt. Percent H2O,[2]; [5],3.97 Wt. Percent
same,Total Impurities,[2]; [13],0.51 area-percent
same,Wt. Percent H2O,[2]; [13],3.70 Wt. Percent
same,Total Impurities,[2]; [6],0.37 area-percent
same,Wt. Percent H2O,[2]; [6],6.00 Wt. Percent
same,Total Impurities,[2]; [8],0.50 area-percent
same,Wt. Percent H2O,[2]; [8],3.47 Wt. Percent
same,Total Impurities,[2]; [10],0.61 area-percent
same,Wt. Percent H2O,[2]; [10],3.49 Wt. Percent
same,Total Impurities,"[2]; 40° C. and 75% relative humidity, Initial, HPLC",0.37 area-percent
same,Wt. Percent H2O,"[2]; 40° C. and 75% relative humidity, Initial, Karl Fischer",6.00 Wt. Percent
same,Change during the storage periods,[2]; [12],did not change appreciably
same,Total Impurities,"[3]; 2 to 8° C., 1 Month",0.37 area-percent
same,Wt. Percent H2O,"[3]; 2 to 8° C., 1 Month",5.4 Wt. Percent
same,Total Impurities,"[3]; 2 to 8° C., 2 Month",0.36 area-percent
same,Wt. Percent H2O,"[3]; 2 to 8° C., 2 Month",5.3 Wt. Percent
same,Total Impurities,"[3]; 2 to 8° C., 3 Month",0.34 area-percent
same,Wt. Percent H2O,"[3]; 2 to 8° C., 3 Month",5.4 Wt. Percent
same,Total Impurities,"[3]; 2 to 8° C., Initial",0.35 area-percent
same,Wt. Percent H2O,"[3]; 2 to 8° C., Initial",5.4 Wt. Percent
same,Total Impurities,[3]; [4],0.41 area-percent
same,Wt. Percent H2O,[3]; [4],4.6 Wt. Percent
same,Total Impurities,[3]; [14],0.42 area-percent
same,Wt. Percent H2O,[3]; [14],4.8 Wt. Percent
same,Total Impurities,[3]; [15],0.40 area-percent
same,Wt. Percent H2O,[3]; [15],4.9 Wt. Percent
same,Total Impurities,[3]; [6],0.35 area-percent
same,Wt. Percent H2O,[3]; [6],5.4 Wt. Percent
same,Total Impurities,[3]; [7],0.45 area-percent
same,Wt. Percent H2O,[3]; [7],4.3 Wt. Percent
same,Total Impurities,[3]; [16],0.47 area-percent
same,Wt. Percent H2O,[3]; [16],4.5 Wt. Percent
same,Total Impurities,[3]; [17],0.48 area-percent
same,Wt. Percent H2O,[3]; [17],5.0 Wt. Percent
same,Total Impurities,[3]; [9],0.39 area-percent
same,Wt. Percent H2O,[3]; [9],4.8 Wt. Percent
same,Total Impurities,[3]; [10],0.45 area-percent
same,Wt. Percent H2O,[3]; [10],4.3 Wt. Percent
same,Total Impurities,[3]; [11],0.35 area-percent
same,Wt. Percent H2O,[3]; [11],5.4 Wt. Percent
same,Change during the storage periods,"[3]; all three storage conditions, up to 3 Month",did not change appreciably
